Patent publication US6589984B1, “Benzofurylpyrone derivatives” (Teijin Limited, priority 1998, dated 2003)

Test system: Human hepatic cancer cells HepG2
Experiment: TG production inhibiting activity (14C-acetic acid incorporation into TG) in HepG2 cells
Type: cell-based
Details: Homo sapiens, HepG2; group criterion, alternatives: IC50 at least 10 μM and less than 100 μM, or at least 5% and less than 30% inhibition at 1 μM, or at least 30% and less than 50% inhibition at 10 μM
In short: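 HepG2 cells cultured 6 days in eRDF with 10% bovine serum, then in serum-free eRDF given compound (diluted from 20 mM DMSO stock) plus 14C-acetic acid for one day at 37 °C, 5% CO2. Lipids extracted with hexane/isopropanol 2:1 and separated by TLC; the TG spot was cut out and counted by liquid scintillation.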

SMILES	IC50
CC(=O)Oc1c(C)c(-c2cc3cc(O)ccc3o2)oc(=O)c1C [Example 261, 4-acetyloxy-3,5-dimethyl-6-(5-hydroxybenzofuran-2-yl)-2H-pyran-2-one]	10 to 100 µM
Cc1c(-c2cc3cc(O)ccc3o2)oc(=O)c(C)c1O [Example 262, 3,5-dimethyl-4-hydroxy-6-(5-hydroxybenzofuran-2-yl)-2H-pyran-2-one]	10 to 100 µM
COc1ccc(C(=O)Oc2ccc3oc(-c4oc(=O)c(C)c(OC(C)=O)c4C)cc3c2)cc1 [Example 263, 4-acetyloxy-3,5-dimethyl-6-(5-(4-methoxybenzoyloxy)benzofuran-2-yl)-2H-pyran-2-one]	10 to 100 µM
CC(=O)Oc1c(C)c(-c2cc3cc(C(=O)O)ccc3o2)oc(=O)c1C [Example 264, 4-acetyloxy-6-(5-carboxybenzofuran-2-yl)-3,5-dimethyl-2H-pyran-2-one]	10 to 100 µM
COc1cccc2oc(-c3oc(=O)c(C)c(OC(C)=O)c3C)cc12 [Example 266, 4-acetyloxy-3,5-dimethyl-6-(4-methoxybenzofuran-2-yl)-2H-pyran-2-one]	10 to 100 µM
COc1cccc2oc(-c3oc(=O)c(C)c(O)c3C)cc12 [Example 267, 3,5-dimethyl-4-hydroxy-6-(4-methoxybenzofuran-2-yl)-2H-pyran-2-one]	10 to 100 µM
CC(=O)Oc1ccc2oc(-c3oc(=O)c(C)c(OC(C)=O)c3C)cc2c1 [Example 269, 4-acetyloxy-6-(5-acetyloxybenzofuran-2-yl)-3,5-dimethyl-2H-pyran-2-one]	10 to 100 µM
Cc1c(-c2cc3ccc(O)cc3o2)oc(=O)c(C)c1O [Example 272, 3,5-dimethyl-4-hydroxy-6-(6-hydroxybenzofuran-2-yl)-2H-pyran-2-one]	10 to 100 µM
COc1ccc2cc(-c3oc(=O)c(C)c(OC(C)=O)c3C)oc2c1 [Example 273, 4-acetyloxy-3,5-dimethyl-6-(6-methoxybenzofuran-2-yl)-2H-pyran-2-one]	10 to 100 µM
CC(=O)Oc1ccc2cc(-c3oc(=O)c(C)c(OC(C)=O)c3C)oc2c1 [Example 275, 4-acetyloxy-6-(6-acetyloxybenzofuran-2-yl)-3,5-dimethyl-2H-pyran-2-one]	10 to 100 µM
COC(=O)CCOc1ccc2cc(-c3oc(=O)c(C)c(OC(C)=O)c3C)oc2c1 [Example 278, 4-acetyloxy-3,5-dimethyl-6-(6-(2-(methoxycarbonyl)ethoxy)benzofuran-2-yl)-2H-pyran-2-one]	10 to 100 µM
CC(=O)OCCOc1ccc2cc(-c3oc(=O)c(C)c(OC(C)=O)c3C)oc2c1 [Example 280, 4-acetyloxy-6-(6-(2-(acetyloxy)ethoxy)benzofuran-2-yl)-3,5-dimethyl-2H-pyran-2-one]	10 to 100 µM
Cc1c(-c2cc3cccc(O)c3o2)oc(=O)c(C)c1O [Example 281, 3,5-dimethyl-4-hydroxy-6-(7-hydroxybenzofuran-2-yl)-2H-pyran-2-one]	10 to 100 µM
CC(=O)Oc1c(C)c(-c2cc3cccc(OC(C)=O)c3o2)oc(=O)c1C [Example 284, 4-acetyloxy-6-(7-acetyloxybenzofuran-2-yl)-3,5-dimethyl-2H-pyran-2-one]	10 to 100 µM
Cc1c(-c2cc3cccc(OCc4ccccc4)c3o2)oc(=O)c(C)c1O [Example 286, 6-(7-benzyloxybenzofuran-2-yl)-3,5-dimethyl-4-hydroxy-2H-pyran-2-one]	10 to 100 µM
CC(=O)Oc1c(C)c(-c2cc3ccccc3o2)oc(=O)c1C(C)C [Example 287, 4-acetyloxy-6-(benzofuran-2-yl)-3-isopropyl-5-methyl-2H-pyran-2-one]	10 to 100 µM
COCOc1ccc2cc(-c3oc(=O)c(C)c(OC(C)=O)c3C)oc2c1 [Example 292, 4-acetyloxy-3,5-dimethyl-6-(6-methoxymethoxybenzofuran-2-yl)-2H-pyran-2-one]	10 to 100 µM
CC(=O)Oc1c(C)c(-c2cc3cc(C(=O)Nc4ccccc4)ccc3o2)oc(=O)c1C [Example 295, 4-acetyloxy-3,5-dimethyl-6-(5-(phenylcarbamoyl)benzofuran-2-yl)-2H-pyran-2-one]	10 to 100 µM
CC(=O)Oc1c(C)c(-c2cc3cc(OC(=O)c4ccccc4)ccc3o2)oc(=O)c1C [Example 296, 4-acetyloxy-6-(5-benzoyloxybenzofuran-2-yl)-3,5-dimethyl-2H-pyran-2-one]	10 to 100 µM

Same assay, conditions: Homo sapiens, HepG2; group criterion, alternatives: IC50 less than 10 μM, or at least 30% inhibition at 1 μM, or at least 50% inhibition at 10 μM

SMILES	IC50
COC(=O)c1ccc2oc(-c3oc(=O)c(C)c(OC(C)=O)c3C)cc2c1 [Example 259, 4-acetyloxy-3,5-dimethyl-6-(5-(methoxycarbonyl)benzofuran-2-yl)-2H-pyran-2-one]	< 10 µM
CC(=O)Oc1c(C)c(-c2cc3c(OCc4ccccc4)cccc3o2)oc(=O)c1C [Example 260, 4-acetyloxy-6-(4-benzyloxybenzofuran-2-yl)-3,5-dimethyl-2H-pyran-2-one]	< 10 µM
CC(=O)Oc1c(C)c(-c2cc3c(OC(C)=O)cccc3o2)oc(=O)c1C [Example 265, 4-acetyloxy-6-(4-acetyloxybenzofuran-2-yl)-3,5-dimethyl-2H-pyran-2-one]	< 10 µM
COc1ccc2oc(-c3oc(=O)c(C)c(OC(C)=O)c3C)cc2c1 [Example 268, 4-acetyloxy-3,5-dimethyl-6-(5-methoxybenzofuran-2-yl)-2H-pyran-2-one]	< 10 µM
CC(=O)Oc1c(C)c(-c2cc3cc(OCc4ccccc4)ccc3o2)oc(=O)c1C [Example 270, 4-acetyloxy-6-(5-benzyloxybenzofuran-2-yl)-3,5-dimethyl-2H-pyran-2-one]	< 10 µM
Cc1c(-c2cc3cc(OCc4ccccc4)ccc3o2)oc(=O)c(C)c1O [Example 271, 6-(5-benzyloxybenzofuran-2-yl)-3,5-dimethyl-4-hydroxy-2H-pyran-2-one]	< 10 µM
CC(=O)Oc1c(C)c(-c2cc3cc(OS(=O)(=O)c4ccc(C)cc4)ccc3o2)oc(=O)c1C [Example 274, 4-acetyloxy-3,5-dimethyl-6-(5-p-toluenesulfonyloxybenzofuran-2-yl)-2H-pyran-2-one]	< 10 µM
CC(=O)Oc1c(C)c(-c2cc3cccc(OCc4ccccc4)c3o2)oc(=O)c1C [Example 285, 4-acetyloxy-6-(7-benzyloxybenzofuran-2-yl)-3,5-dimethyl-2H-pyran-2-one]	< 10 µM
COC(=O)c1ccc2oc(-c3oc(=O)c(C)c(O)c3C)cc2c1 [Example 290, 3,5-dimethyl-4-hydroxy-6-(5-(methoxycarbonyl)benzofuran-2-yl)-2H-pyran-2-one]	< 10 µM
COCOc1ccc2cc(-c3oc(=O)c(C)c(O)c3C)oc2c1 [Example 291, 3,5-dimethyl-4-hydroxy-6-(6-methoxymethoxybenzofuran-2-yl)-2H-pyran-2-one]	< 10 µM
Cc1c(-c2cc3cc(N(C)S(=O)(=O)c4ccc(Cl)cc4)ccc3o2)oc(=O)c(C)c1O [Example 297, 6-(5-(N-(4-chlorophenylsulfonyl)-N-methylamino)benzofuran-2-yl)-3,5-dimethyl-4-hydroxy-2H-pyran-2-one]	< 10 µM
Cc1c(-c2cc3cc(C(=O)N(C)c4ccccc4)ccc3o2)oc(=O)c(C)c1O [Example 299, 3,5-dimethyl-4-hydroxy-6-(5-(N-methyl-N-phenylcarbamoyl)benzofuran-2-yl)-2H-pyran-2-one]	< 10 µM
Cc1c(-c2cc3cc(C(=O)N4CCc5ccccc5C4)ccc3o2)oc(=O)c(C)c1O [Example 302, 3,5-dimethyl-4-hydroxy-6-(5-(1,3,4-trihydroisoquinolin-2-ylcarbonyl)benzofuran-2-yl)-2H-pyran-2-one]	< 10 µM
Cc1c(-c2cc3cc(OCc4cncc(O)c4)ccc3o2)oc(=O)c(C)c1O [Example 304, 3,5-dimethyl-4-hydroxy-6-(5-(5-hydroxy-3-pyridylmethoxy)benzofuran-2-yl)-2H-pyran-2-one]	< 10 µM
Cc1c(-c2cc3cc(C(=O)Nc4ccc(S(N)(=O)=O)cc4)ccc3o2)oc(=O)c(C)c1O [Example 305, 3,5-dimethyl-4-hydroxy-6-(5-(4-(sulfamoyl)phenylcarbamoyl)benzofuran-2-yl)-2H-pyran-2-one]	< 10 µM
Cc1c(-c2cc3cc(C(=O)NCc4ccncc4)ccc3o2)oc(=O)c(C)c1O [Example 306, 3,5-dimethyl-4-hydroxy-6-(5-(4-pyridylmethylcarbamoyl)benzofuran-2-yl)-2H-pyran-2-one]	< 10 µM
Cc1c(-c2cc3cc(C4CCNCC4)ccc3o2)oc(=O)c(C)c1O [Example 307, 3,5-dimethyl-4-hydroxy-6-(5-(4-piperidinyl)benzofuran-2-yl)-2H-pyran-2-one]	< 10 µM
Cc1c(-c2cc3cc(C(=O)N(C)Cc4ccccc4)ccc3o2)oc(=O)c(C)c1O [Example 308, 6-(5-(N-benzyl-N-methylcarbamoyl)benzofuran-2-yl)-3,5-dimethyl-4-hydroxy-2H-pyran-2-one]	< 10 µM
Cc1c(-c2cc3cc(C(=O)N(C)c4ccncc4)ccc3o2)oc(=O)c(C)c1O [Example 309, 3,5-dimethyl-4-hydroxy-6-(5-(N-methyl-N-(4-pyridyl)carbamoyl)benzofuran-2-yl)-2H-pyran-2-one]	< 10 µM
